For experiment [1], the target named is human recombinant serotonin (5-Hydroxytryptamine) 5-HT7 receptor (Homo sapiens, UniProt P34969). The experiment can be described thus: Serotonin 5-HT7 radioligand binding ([3H]LSD). The conditions noted are these: for inhibition at 0.1 µM: compound at 0.1 μM; for inhibition at 0.1 µM / inhibition at 1 µM: read-out: Inhibition of ligand binding, Serotonin 5-HT7 (percent inhibition of specific binding). An excerpt: Receptor proteins were filtered and washed, the filters were then counted to determine [^3H]LSD specifically bound.
Sequence of human recombinant serotonin (5-Hydroxytryptamine) 5-HT7 receptor (P34969 whole entry): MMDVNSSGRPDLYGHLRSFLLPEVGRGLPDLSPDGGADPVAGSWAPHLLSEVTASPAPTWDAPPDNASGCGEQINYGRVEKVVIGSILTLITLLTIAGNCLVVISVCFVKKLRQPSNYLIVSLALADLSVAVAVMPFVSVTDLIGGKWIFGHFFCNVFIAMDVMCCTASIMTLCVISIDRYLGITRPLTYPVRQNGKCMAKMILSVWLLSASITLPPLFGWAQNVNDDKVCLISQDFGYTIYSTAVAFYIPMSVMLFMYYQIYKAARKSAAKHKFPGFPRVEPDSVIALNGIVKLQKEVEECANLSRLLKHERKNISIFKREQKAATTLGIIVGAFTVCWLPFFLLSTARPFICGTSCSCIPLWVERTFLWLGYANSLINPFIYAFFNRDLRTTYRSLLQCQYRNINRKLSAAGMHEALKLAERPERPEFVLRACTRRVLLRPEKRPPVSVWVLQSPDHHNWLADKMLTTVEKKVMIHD

In experiment [2] the target is T1, human recombinant serotonin (5-Hydroxytryptamine) 5-HT6 receptor (Homo sapiens, UniProt P50406).
T1 construct: expressed in transfected cells; host or cells: human HeLa cells
T1 sequence (P50406 whole entry): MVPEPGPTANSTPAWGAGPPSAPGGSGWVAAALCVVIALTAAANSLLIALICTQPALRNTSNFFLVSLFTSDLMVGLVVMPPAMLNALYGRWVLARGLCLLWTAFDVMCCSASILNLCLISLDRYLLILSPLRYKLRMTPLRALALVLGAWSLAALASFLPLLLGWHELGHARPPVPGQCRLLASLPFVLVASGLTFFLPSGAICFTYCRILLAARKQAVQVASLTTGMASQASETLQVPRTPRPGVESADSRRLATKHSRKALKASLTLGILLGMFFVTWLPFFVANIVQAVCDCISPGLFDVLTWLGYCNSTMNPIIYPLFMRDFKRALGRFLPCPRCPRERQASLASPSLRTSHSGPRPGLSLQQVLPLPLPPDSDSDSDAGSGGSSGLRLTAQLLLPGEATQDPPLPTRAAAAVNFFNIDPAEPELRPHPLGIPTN
The experiment can be described thus: Serotonin 5-HT6 radioligand binding ([3H]LSD). To be noted: read-out: Inhibition of ligand binding, Serotonin 5-HT6 (percent inhibition of specific binding); for inhibition at 0.1 µM: compound at 0.1 μM; for inhibition at 1 µM: compound at 1 μM. The method, then: Compounds of the invention were incubated with 1.5 nM [3H]Lysergic acid diethylamide (LSD) for 120 min. at 37° C. […] Receptor proteins were filtered and washed, the filters were then counted to determine [3H]LSD specifically bound. Compounds were screened at 1 μM or lower, using 1% DMSO as vehicle. Biochemical assay results are presented as the percent inhibition of specific binding in Table 10.

Experiment [3] deals with T2, human recombinant serotonin (5-Hydroxytryptamine) 5-HT2C receptor (Homo sapiens, UniProt P28335).
T2 construct: expressed in transfected cells; host or cells: Chinese hamster ovary (CHO-K1) cells
T2 sequence (P28335 33-458): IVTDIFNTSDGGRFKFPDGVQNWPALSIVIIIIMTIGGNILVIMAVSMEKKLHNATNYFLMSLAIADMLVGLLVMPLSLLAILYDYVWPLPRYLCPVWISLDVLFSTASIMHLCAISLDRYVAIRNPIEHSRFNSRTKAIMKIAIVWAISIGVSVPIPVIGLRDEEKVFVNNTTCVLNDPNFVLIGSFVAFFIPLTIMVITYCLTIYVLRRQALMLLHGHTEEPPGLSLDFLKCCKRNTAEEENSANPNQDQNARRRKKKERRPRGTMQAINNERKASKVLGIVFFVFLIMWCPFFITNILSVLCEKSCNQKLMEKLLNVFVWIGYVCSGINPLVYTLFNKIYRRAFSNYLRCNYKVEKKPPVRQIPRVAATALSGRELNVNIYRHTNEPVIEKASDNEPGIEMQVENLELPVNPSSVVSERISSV
The experiment can be described thus: Serotonin 5-HT2C radioligand binding ([3H]Mesulergine). The conditions noted are these: for inhibition at 0.1 µM: compound at 0.1 μM; for inhibition at 0.1 µM / inhibition at 1 µM: read-out: Inhibition of ligand binding, Serotonin 5-HT2C (percent inhibition of specific binding). Summed up: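 Compounds tested at 1 μM or lower (1% DMSO vehicle) for displacement of 1 nM [3H]Mesulergine over 60 min at 25° C. Specific binding determined by filtration counting, with 1 μM Mianserin defining non-specific binding; values are percent inhibition.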

The target in experiment [4] is T3, human recombinant serotonin 5-HT1B receptor (Homo sapiens, UniProt P28222).
T3 construct: expressed in transfected cells; host or cells: CHO-K1 cell line, membrane extracts
T3 sequence (P28222 whole entry): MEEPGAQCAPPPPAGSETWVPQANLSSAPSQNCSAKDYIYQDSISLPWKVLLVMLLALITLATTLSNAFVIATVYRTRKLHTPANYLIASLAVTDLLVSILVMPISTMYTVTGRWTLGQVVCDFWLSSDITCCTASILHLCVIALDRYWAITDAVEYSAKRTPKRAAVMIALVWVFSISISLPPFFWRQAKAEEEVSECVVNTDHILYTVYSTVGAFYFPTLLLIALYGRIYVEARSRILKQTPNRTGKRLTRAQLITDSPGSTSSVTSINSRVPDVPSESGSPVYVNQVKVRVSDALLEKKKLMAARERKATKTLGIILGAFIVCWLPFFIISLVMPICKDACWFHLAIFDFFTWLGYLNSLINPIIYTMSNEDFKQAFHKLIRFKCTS
The experiment can be described thus: 5-HT1B radioligand binding competition assay ([3H]5-CT, CHO-K1 membranes). To be noted: for 5-HT1B (5 μM) % Binding relative to bound radioligand: in duplicate, average. The method, then: To determine the binding activity at the human recombinant serotonin 5-HT1B receptor of compounds of the invention, CHO-K1 cell line expressing the human 5-HT1B recombinant receptor was amplified to prepare membranes used for the radioligand binding assay throughout the study. Radioligand binding competition on 5-HT1B was performed by adding successively in the wells of a 96 well plate (Master Block, Greiner, 786201). […] The plate was incubated 60 min at 25° C. in a water bath and then filtered over GF/B filters (Perkin Elmer, 6005177, presoaked in 0.5% PE1 for 2 h at room temperature) with a Filtration unit (Perkin Elmer). The filters were washed 3× with 0.5 mL of ice-cold washing buffer (50 mM Tris pH 7.4). 50 μL Microscint 20 (Packard) was added and the plate was incubated 15 min on an orbital shaker and then counted with a TopCount™ for 1 min/well.
The reference value thus obtained for the test was compared to a historical value obtained from the same receptor and used to validate the experimental session. […] For replicate determinations, the maximum variability tolerated in the test was of +/−20% around the average of the replicates.
Compounds were tested for binding activity in the radioligand binding competition assay on human 5-HT1B receptor, at one concentration […], in duplicate. Dose-response data from test compounds were analyzed with XLfit (IDBS) software using nonlinear regression applied to a sigmoidal dose-response model.
Dose-response data was analyzed with XLfit (IDBS) software using non-linear regression applied to a sigmoidal dose-response model.

The target in experiment [5] is T4, human recombinant serotonin (5-Hydroxytryptamine) 5-HT2A receptor (Homo sapiens, UniProt P28223).
T4 construct: expressed in transfected cells; host or cells: Chinese hamster ovary (CHO-K1) cells
T4 sequence (P28223 whole entry): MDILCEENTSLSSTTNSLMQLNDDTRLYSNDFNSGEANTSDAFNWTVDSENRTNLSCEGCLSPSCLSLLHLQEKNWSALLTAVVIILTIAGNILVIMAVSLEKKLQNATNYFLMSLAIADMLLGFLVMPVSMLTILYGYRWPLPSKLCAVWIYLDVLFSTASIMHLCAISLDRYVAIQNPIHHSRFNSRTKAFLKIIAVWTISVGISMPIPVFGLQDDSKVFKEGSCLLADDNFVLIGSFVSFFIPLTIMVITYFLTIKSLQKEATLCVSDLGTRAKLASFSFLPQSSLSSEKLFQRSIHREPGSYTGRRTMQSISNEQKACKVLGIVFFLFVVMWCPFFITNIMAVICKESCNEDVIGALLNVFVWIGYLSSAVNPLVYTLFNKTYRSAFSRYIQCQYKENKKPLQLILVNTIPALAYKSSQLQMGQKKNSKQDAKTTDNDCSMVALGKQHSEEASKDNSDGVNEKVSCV
The experiment can be described thus: Serotonin 5-HT2A radioligand binding ([3H]Ketanserin). To be noted: for inhibition at 0.1 µM: read-out: Inhibition of ligand binding, Serotonin 5-HT2A (percent inhibition of specific binding), compound at 0.1 μM; for inhibition at 1 µM: read-out: Inhibition of ligand binding, Serotonin 5-HT2A (percent inhibition of specific binding), compound at 1 μM. The protocol: Compounds of the invention were incubated with 0.5 nM [^3H]Ketanserin for 60 min. at 25° C. Non-specific binding was estimated in the presence of 1 μM Mianserin. Receptor proteins were filtered and washed, the filters were then counted to determine [^3H]Ketanserin specifically bound.

Experiment [6] addresses human dopamine D2L receptor (Homo sapiens, UniProt P14416). The experiment can be described thus: Dopamine D2L radioligand binding ([3H]Spiperone). To be noted: compound at 1 μM. An excerpt: Non-specific binding was estimated in the presence of […] Haloperidol. Receptor proteins were filtered and washed, the filters were then counted to determine [^3H]Spiperone specifically bound. […] Biochemical assay results are presented as the percent inhibition of specific binding in Table 9.

Another experiment concerns the target histamine receptor H1 (Homo sapiens, UniProt P35367). The experiment can be described thus: Histamine H1 radioligand binding ([3H]Pyrilamine). The conditions noted are these: read-out: Histamine Binding (1 μM) H1, percent inhibition of specific binding, 1 μM. In short, it runs like this:
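Values are percent inhibition of specific [3H]pyrilamine (1.2 nM) binding with compounds at ≤1 μM (1% DMSO vehicle); 180 min incubation at 25 °C, pH 7.4 Tris buffer, on CHO-expressed human H1 receptor; 1 μM pyrilamine defined nonspecific binding, bound ligand counted after filtration.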

In experiment [7] the target is T5, human recombinant histamine H2 receptor (Homo sapiens, UniProt P25021).
T5 construct: expressed in transfected cells; host or cells: Chinese hamster ovary (CHO) K1 cells
T5 sequence (P25021 whole entry): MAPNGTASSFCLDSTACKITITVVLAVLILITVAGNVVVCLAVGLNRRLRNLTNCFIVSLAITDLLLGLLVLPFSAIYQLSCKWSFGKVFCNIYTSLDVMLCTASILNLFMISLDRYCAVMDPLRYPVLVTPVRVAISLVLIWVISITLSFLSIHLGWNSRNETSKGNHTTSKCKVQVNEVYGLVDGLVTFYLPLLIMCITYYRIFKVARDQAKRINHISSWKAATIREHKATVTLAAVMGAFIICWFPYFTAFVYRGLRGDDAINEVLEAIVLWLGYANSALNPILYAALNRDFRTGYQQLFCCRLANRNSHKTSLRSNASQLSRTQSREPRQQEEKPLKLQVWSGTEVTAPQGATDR
The experiment can be described thus: Histamine H2 radioligand binding ([125I]Aminopotentidine). To be noted: read-out: Histamine Binding (1 μM) H2, percent inhibition of specific binding, 1 μM. Summed up: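 CHO-K1 cells expressing human recombinant H2 receptor, 50 mM phosphate buffer pH 7.4; compounds incubated with 0.1 nM [125I]aminopotentidine for 120 min at 25 °C. Nonspecific binding defined with 3 μM tiotidine; specifically bound radioligand counted after filtration and washing.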

Setting [8] is: percent inhibition of specific binding, read-out: Inhibition of ligand binding, Dopamine D2L.

Read-outs that look alike come from different tables or passages of the source.

Sequence of histamine receptor H1 (P35367 whole entry): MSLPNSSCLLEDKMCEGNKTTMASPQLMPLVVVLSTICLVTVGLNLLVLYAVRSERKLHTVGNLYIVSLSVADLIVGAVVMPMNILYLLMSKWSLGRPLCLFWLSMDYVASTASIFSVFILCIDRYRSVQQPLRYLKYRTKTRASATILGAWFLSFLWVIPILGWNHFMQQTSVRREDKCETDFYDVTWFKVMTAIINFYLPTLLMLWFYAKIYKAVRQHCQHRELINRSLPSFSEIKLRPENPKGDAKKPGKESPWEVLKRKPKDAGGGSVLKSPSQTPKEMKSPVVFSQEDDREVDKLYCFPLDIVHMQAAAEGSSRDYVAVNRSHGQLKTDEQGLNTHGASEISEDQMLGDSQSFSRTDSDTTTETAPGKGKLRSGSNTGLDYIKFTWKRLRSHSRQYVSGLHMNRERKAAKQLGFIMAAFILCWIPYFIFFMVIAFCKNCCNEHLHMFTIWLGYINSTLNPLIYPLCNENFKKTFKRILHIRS
Sequence of human dopamine D2L receptor (P14416 whole entry): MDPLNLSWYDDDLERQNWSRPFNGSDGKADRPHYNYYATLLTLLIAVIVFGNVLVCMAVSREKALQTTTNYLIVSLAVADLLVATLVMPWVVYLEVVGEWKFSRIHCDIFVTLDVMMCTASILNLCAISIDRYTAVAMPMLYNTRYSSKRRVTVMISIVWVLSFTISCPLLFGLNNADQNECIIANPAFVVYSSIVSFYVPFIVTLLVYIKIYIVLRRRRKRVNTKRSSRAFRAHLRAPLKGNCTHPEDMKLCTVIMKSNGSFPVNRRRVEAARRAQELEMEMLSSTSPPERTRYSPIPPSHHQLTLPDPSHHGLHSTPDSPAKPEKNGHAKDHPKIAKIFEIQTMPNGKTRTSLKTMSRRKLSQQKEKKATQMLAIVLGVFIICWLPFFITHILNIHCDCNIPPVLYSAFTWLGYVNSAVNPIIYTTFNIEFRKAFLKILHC

In the case of `C/C(=C\n1c2c(c3cc(C)ccc31)CN(C)C(C)C2)c1ccc(C)nc1` (stereo not shown) [Compound 259, (E)-2,3,8-trimethyl-5-(2-(6-methylpyridin-3-yl)prop-1-enyl)-2,3,4,5-tetrahydro-1H-pyrido[4,3-b]indole], the inhibition (commonly the change of the read-out against control, counted positive when it falls) at 0.1 µM in experiment [1] was found to be 81%; in experiment [2], 21%; in experiment [3] it was 92%; in experiment [5], 96%. Further, the “5-HT1B (5 μM) % Binding relative to bound radioligand” value in experiment [4] turned out to be 25%. The inhibition at 1 µM in experiment [6] (setting [8]) is -12%; on histamine receptor H1 it was 10%.

Regarding `CN1CCc2c(c3cccc(Cl)c3n2CC(C)(O)c2ccncc2)C1` (stereo not shown) [Compound 182, 1-(6-chloro-2-methyl-3,4-dihydro-1H-pyrido[4,3-b]indol-5(2H)-yl)-2-(pyridin-4-yl)propan-2-ol], the inhibition at 1 µM turned out to be 54% in experiment [1] (compound at 1 μM); 47% in experiment [2]; 93% in experiment [3] (compound at 1 μM); 53% in experiment [7]; 91% in experiment [5]; 8% in experiment [6] (setting [8]). The inhibition at 1 µM on histamine receptor H1 is 26%. The “5-HT1B (5 μM) % Binding relative to bound radioligand” value in experiment [4] turned out to be 3%.

Turning to `C/C=C(\Cn1c2c(c3cc(C)ccc31)CN(C)CC2)c1ccncc1` [Compound No. 359, (Z)-2,8-dimethyl-5-(2-(pyridin-4-yl)but-2-enyl)-2,3,4,5-tetrahydro-1H-pyrido[4,3-b]indole], the “5-HT1B (5 μM) % Binding relative to bound radioligand” value in experiment [4] is listed as 68%. The inhibition at 1 µM in experiment [6] ([…] [3H]Spiperone, read-out: Inhibition of ligand binding, Dopamine D2L (percent inhibition of specific binding)) was determined as 27%; at histamine receptor H1, 38%.

As for `C/C(=C\n1c2c(c3cc(C)ccc31)CN(C)CC2)c1cccnc1` [Compound 91, (E)-2,3,4,5-tetrahydro-2,8-dimethyl-5-(2-(pyridin-3-yl)prop-1-enyl)-1H-pyrido[4,3-b]indole], the inhibition at 1 µM in experiment [1] (compound at 1 μM) was 95%; in experiment [2], 76%; in experiment [3] (compound at 1 μM) it was 100%; in experiment [7] it was 52%; in experiment [5], 98%; in experiment [6] (setting [8]), 27%. In addition, the inhibition at 1 µM at histamine receptor H1 is 11%. Besides, in experiment [4], the 50% inhibitory concentration (IC50) (usually the point on the concentration scale where inhibition reaches its midpoint) turned out to be 365 nM. Moreover, the “5-HT1B (5 μM) % Binding relative to bound radioligand” value in experiment [4] was 9%. The “% Binding relative to bound radioligand (5-HT1B)” value is on record as 120% in experiment [4] (Conc. 0.08 nM); 129% in experiment [4] (Conc. 5 nM); 113% in experiment [4] (Conc. 20 nM); 103% in experiment [4] (Conc. 78 nM); 66% in experiment [4] (Conc. 313 nM); 31% in experiment [4] (Conc. 1250 nM). For the same molecule, the figures for the “% Binding relative to bound radioligand (5-HT1B)” value in experiment [4] (Conc. 20000 nM) and in experiment [4] (Conc. 50000 nM) were 1% and −5%, respectively.

As to `C/C(=C\n1c2c(c3ccccc31)CN(C)CC2)c1ccncc1` [Compound 217, (E)-2-methyl-5-(2-(pyridin-4-yl)prop-1-enyl)-2,3,4,5-tetrahydro-1H-pyrido[4,3-b]indole], the inhibition at 0.1 µM in experiment [1] is 58%; in experiment [2], 97%; in experiment [3], 62%; in experiment [5] it was 96%. In addition, the “Inhibition of ligand binding, Serotonin 5-HT7 (percent inhibition of specific binding)” value in experiment [1] (compound at 1 μM, 1 µM) is given as 91%. In addition, the inhibition at 1 µM in experiment [1] (compound at 1 μM) is 73%; in experiment [2] it was 102%; in experiment [3] (compound at 1 μM), 87%; in experiment [7] it was 50%; in experiment [5], 98%; in experiment [6] (setting [8]), 86%. Also, the “Inhibition of ligand binding, Serotonin 5-HT2C (percent inhibition of specific binding)” value in experiment [3] (compound at 1 μM, 1 µM) was 92%. Besides, the “5-HT1B (5 μM) % Binding relative to bound radioligand” value in experiment [4] was 10%. In experiment [6] (percent inhibition of specific binding, 1 µM), the “Inhibition of ligand binding, Dopamine D2L” value is 88%.

Consider `C/C(=C/n1c2c(c3cc(C)ccc31)CN(C)CC2)c1ccc(F)cc1F` [Compound 274, (Z)-5-(2-(2,4-difluorophenyl)prop-1-enyl)-2,8-dimethyl-2,3,4,5-tetrahydro-1H-pyrido[4,3-b]indole], for which the inhibition at 0.1 µM was 94% in experiment [1], 97% in experiment [2], 99% in experiment [3] and 98% in experiment [5]. For the same molecule, the “5-HT1B (5 μM) % Binding relative to bound radioligand” value in experiment [4] came to 6%. In addition, the figures for the inhibition at 1 µM (in experiment [6] (setting [8]); on histamine receptor H1) were 56% and 72%, respectively.

`COc1ccc2c(c1)c1c(n2/C=C(\C)c2ccncc2)CCN(C)C1` [Compound 246, (E)-8-methoxy-2-methyl-5-(2-(pyridin-4-yl)prop-1-enyl)-2,3,4,5-tetrahydro-1H-pyrido[4,3-b]indole]: the inhibition at 1 µM in experiment [1] (compound at 1 μM) came out at 88%; in experiment [2] it was 104%; in experiment [3] (compound at 1 μM) it was 94%; in experiment [7] it was 29%; in experiment [5] it was 97%; in experiment [6] (setting [8]) it was 57%. For the same molecule, the inhibition at 1 µM on histamine receptor H1 was 7%.

Consider `C/C(=C\n1c2c(c3cc(C)ccc31)CN(C)CC2)c1cccc(F)c1` [Compound 226, (E)-5-(2-(3-fluorophenyl)prop-1-enyl)-2,8-dimethyl-2,3,4,5-tetrahydro-1H-pyrido[4,3-b]indole], for which the inhibition at 1 µM in experiment [1] (compound at 1 μM) worked out at 100%; in experiment [2], 101%; in experiment [3] (compound at 1 μM), 100%; in experiment [7] it was 100%; in experiment [5] it was 98%; in experiment [6] (setting [8]), 46%. The inhibition at 1 µM at histamine receptor H1 was 71%.
